The nature of series [1]: Antiproliferative activity against mouse NS-1 cells assessed as inhibition of cell growth measured after 48 hrs by resazurin staining based analysis. Format: functional. Particulars: NS1, 48 h.
Series [2] can be described thus: Cytotoxicity against human NFF cells assessed as inhibition of cell growth measured after 48 hrs by resazurin staining based analysis. The series is classed as toxicity.
The next series relates to Staphylococcus aureus. The series is described as follows: Antibacterial activity against Staphylococcus aureus assessed as inhibition of bacterial growth measured after 48 hrs by resazurin staining based analysis. The series is classed as functional.
The test system of a further series is Bacillus subtilis. The series is described as follows: Antibacterial activity against Bacillus subtilis ATCC 6633 assessed as inhibition of bacterial growth measured after 48 hrs by resazurin staining based analysis. The series is classed as functional.
Another series has as its system Candida albicans. In words: Antifungal activity against Candida albicans ATCC 10231 assessed as reduction in fungal growth measured after 48 hrs by resazurin staining based analysis. Format: functional.
Another series concerns Tritrichomonas foetus. The series is described as follows: Antiprotozoal activity against Tritrichomonas foetus KV-1 strain assessed as inhibition of protozoal growth measured after 72 hrs under anaerobic conditions. Particulars: KV-1, 72 h. Format: functional, organism-based.
The next series relates to Saccharomyces cerevisiae. The series is described as follows: Antifungal activity against Saccharomyces cerevisiae assessed as reduction in fungal growth measured after 48 hrs by resazurin staining based analysis. Format: functional. (In general: Resazurin is reduced to fluorescent resorufin, in cell work by metabolically active cells.)

≈ marks a conversion by molar mass, not a printed value.

Data on seven compounds can be found in ChEMBL document CHEMBL5360634, “Turonicin A, an Antifungal Linear Polyene Polyketide from an Australian Streptomyces sp” (J Nat Prod, 2023).

A word on the IC50: it is the midpoint of a concentration-inhibition curve. In the case of `CSC[S@+]([O-])C[C@H](CO)NC(=O)/C=C/c1c(C)[nH]c(=O)[nH]c1=O`, in series [1], the IC50 was determined as 0.4 µM. Also, the IC50 at 48 h in series [2] was 1.2 µM.

The MIC is the lowest concentration that inhibits growth of the organism. As to `C\C(=C/C=C/C=C/C=C/C=C/CC/C=C/[C@H](C)[C@H](O)[C@@H](C)[C@H](O)/C=C/C=C/C=C/C=C/C=C/C[C@H](O)[C@H](C)C(=O)C[C@H](O)C[C@H](O)C[C@H](O)/C=C/C[C@@H](O)C[C@H](O)C[C@@H](O)C[C@H](O)/C=C/C[C@H](O)/C=C/C[C@H](O)C[C@H](O)CCCN)C(=O)O`, the MIC in the series on Staphylococcus aureus was 1.5 µg/mL (≈ 1.29 µM); in the series with Bacillus subtilis it was 0.097 µg/mL (≈ 0.0832 µM); in the series with Candida albicans, 0.0008 µg/mL (≈ 0.000686 µM); in the series on Saccharomyces cerevisiae, 0.0002 µg/mL (≈ 0.000171 µM). Also, the half-maximal inhibitory concentration (IC50) (in series [1]; in the series on Tritrichomonas foetus) was more than 80 µM each time. The IC50 at 48 h in series [2] is more than 80 µM.

`C\C(=C/C=C/C=C/C=C/CC/C=C/[C@H](C)[C@H](O)[C@@H](C)[C@H](O)/C=C/C=C/C=C/C=C/C=C/C[C@H](O)[C@H](C)C(=O)C[C@H](O)C[C@H](O)C[C@H](O)/C=C/C[C@@H](O)C[C@H](O)C[C@@H](O)C[C@H](O)/C=C/C[C@H](O)/C=C/C[C@H](O)CCCNC(=N)N)C(=O)O`: the MIC was 0.39 µg/mL (≈ 0.343 µM) with Staphylococcus aureus, 0.097 µg/mL (≈ 0.0852 µM) in the series with Bacillus subtilis, 0.0031 µg/mL (≈ 0.00272 µM) in the series on Candida albicans and 0.0008 µg/mL (≈ 0.000703 µM) in the series on Saccharomyces cerevisiae. Besides, the IC50 is 44 µM in series [1] and more than 80 µM with Tritrichomonas foetus. In addition, the 50% inhibitory concentration (IC50) at 48 h in series [2] is more than 80 µM.

`C\C(=C/C=C/C=C/C=C/CC/C=C/[C@H](C)[C@H](O)[C@@H](C)[C@H](O)/C=C/C=C/C=C/C=C/C=C/C[C@H](O)[C@H](C)C(=O)C[C@H](O)C[C@H](O)C[C@H](O)/C=C/C[C@@H](O)C[C@H](O)C[C@@H](O)C[C@H](O)/C=C/C[C@H](O)/C=C/C[C@H](O)C[C@H](O)CCCN)C(=O)O`: the MIC in the series on Staphylococcus aureus amounted to 3.1 µg/mL (≈ 2.72 µM); in the series with Bacillus subtilis, 0.39 µg/mL (≈ 0.342 µM); in the series on Candida albicans it was 0.0015 µg/mL (≈ 0.00132 µM); in the series with Saccharomyces cerevisiae, 0.0004 µg/mL (≈ 0.000351 µM). For the same compound, the IC50 (in series [1]; with Tritrichomonas foetus) was more than 80 µM throughout. Further, in series [2], the IC50 at 48 h is more than 80 µM.

With `Clc1ccccc1C(c1ccccc1)(c1ccccc1)n1ccnc1` [CLOTRIMAZOLE], the MIC in the series on Candida albicans stood at 0.1 µg/mL (≈ 0.29 µM); in the series on Saccharomyces cerevisiae, 0.4 µg/mL (≈ 1.16 µM).

With `Cc1ncc([N+](=O)[O-])n1CCO` [METRONIDAZOLE], the IC50 in the series with Tritrichomonas foetus turned out to be 0.9 µM.

Consider `CN[C@H](CC(C)C)C(=O)N[C@H]1C(=O)N[C@@H](CC(N)=O)C(=O)N[C@H]2C(=O)N[C@H]3C(=O)N[C@H](C(=O)N[C@H](C(=O)O)c4cc(O)cc(O)c4-c4cc3ccc4O)[C@H](O)c3ccc(c(Cl)c3)Oc3cc2cc(c3O[C@@H]2O[C@H](CO)[C@@H](O)[C@H](O)[C@H]2O[C@H]2C[C@](C)(N)[C@H](O)[C@H](C)O2)Oc2ccc(cc2Cl)[C@H]1O` [VANCOMYCIN], for which the MIC in the series with Staphylococcus aureus turned out to be 0.8 µg/mL (≈ 0.552 µM); in the series on Bacillus subtilis, 0.05 µg/mL (≈ 0.0345 µM).
